Test results reported in US20030232986A1, “Inhibitors of caspases” (Vertex Pharmaceuticals Incorporated, priority 1998, published 2003).

How the values were obtained:
Caspase-1 = target: T1, Caspase-1 (Homo sapiens, UniProt P29466); test: Caspase-1 enzyme inhibition (Ki); type: biochemical; settings: substrate Suc-YVAD-pNA 80 μM, 37° C., pH 7.5
T1 sequence (P29466 120-297 limits assumed): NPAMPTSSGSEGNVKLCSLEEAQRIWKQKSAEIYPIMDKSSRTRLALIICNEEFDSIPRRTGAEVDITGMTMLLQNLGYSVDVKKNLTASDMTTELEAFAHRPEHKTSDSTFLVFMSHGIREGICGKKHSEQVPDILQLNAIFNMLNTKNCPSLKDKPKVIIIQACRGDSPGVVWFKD
T1 sequence (P29466 317-404 limits assumed): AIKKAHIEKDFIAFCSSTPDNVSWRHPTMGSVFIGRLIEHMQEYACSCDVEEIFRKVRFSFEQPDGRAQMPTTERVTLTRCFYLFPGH
Outline: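 Ki obtained by fitting rate versus inhibitor concentration to the Morrison tight-binding equation for competitive inhibitors, with pNA release read at 405 nm at 37 °C. Substrate Suc-YVAD-pNA (80 μM final) added after 15 min enzyme–inhibitor preincubation in Tris pH 7.5 buffer with DTT and CHAPS.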

Caspase-3 = target: T2, Caspase-3 (Homo sapiens, UniProt P42574); test: Caspase-3 enzyme inhibition (Ki); type: biochemical; settings: substrate Ac-DEVD-pNA 60 μM, 8% glycerol in buffer, 37° C.
T2 sequence (P42574 29-175 limits assumed): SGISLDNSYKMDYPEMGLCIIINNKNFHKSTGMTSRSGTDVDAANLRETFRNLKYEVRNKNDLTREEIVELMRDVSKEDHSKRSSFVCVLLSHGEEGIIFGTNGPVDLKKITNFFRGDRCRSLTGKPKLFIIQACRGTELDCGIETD
T2 sequence (P42574 176-277 limits assumed): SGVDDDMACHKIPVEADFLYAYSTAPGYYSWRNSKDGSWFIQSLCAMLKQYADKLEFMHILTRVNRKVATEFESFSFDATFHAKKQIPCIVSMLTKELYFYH
Description: Ki values for test compounds with the various caspases were obtained by the method of Margolin et al. (J. Biol. Chem., 272 pp. 7223-7228 (1997)). Assays were performed in 10 mM Tris (Sigma Corp, St Louis Mo.) pH 7.5, 1 mM Dithiothreitol (DTT, Research Organic INC, Cleveland, Ohio) and 0.1% CHAPS (Pierce, Rockford Ill.) at 37° C. For caspase-3, a solution of 8% glycerol was added to the assay buffer to improve enzyme stability. A 65 μL aliquot of the assay buffer and 5 μL aliquot of the appropriate dilutions of inhibitor in DMSO where pipetted into a 96 well plate, treated with 10 μL of caspase, then diluted in assay buffer (0.5-40 nM active protein by active site titration). A control containing DMSO but no compound was included for each determination. The plates were then incubated for 15 minutes at 37° C., before addition of the appropriate substrate (20 μL, final concentration 1-4×KM, final assay volume 100 μL) to initiate the reaction. Reaction rates were measured at 37° C. either by following the time dependant increase in absorbance at 405 nm (for the pNA substrates) or in fluorescence (Ex 390, Em 460) (for the AMC substrates). The rates obtained were plotted against inhibitor concentration and the data fit to the Morrison tight-binding equation for competitive inhibitors (Morrison, J. F., Biochem. Biophys. Acta, 185 pp. 269-286 (1969)). The substrates used for the individual assays were as follows:
Caspase-3 Ac-DEVD-pNA (Bachem, King of Prussia, Pa.) (final concentration in assay, 60 μM)

[1] = system: Human Peripheral Blood Mononuclear Cells (PBMC), mature IL-1β; test: PBMC cell assay: IL-1β assay with human peripheral blood mononuclear cells; type: cell-based; settings: LPS-stimulated human PBMC, mature IL-1β in supernatant by ELISA
Outline: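 Donor PBMC (suspension at 6×10^6 cells/ml) or adherent-enriched monocytes were stimulated with 5 ng/ml LPS (final) alongside 5–6 compound dilutions bracketing the ICE Ki, at 0.1% DMSO final, for 16–18 hr at 37° C, 5% CO2. Mature IL-1β in supernatants was measured by ELISA; IC50 was calculated relative to LPS-only controls.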

[2] = Single pass perfusion in rat: GI wall and liver metabolism, biliary excretion; type: in vitro ADME
Description: Single pass perfusion studies in rat were performed to assess gastrointestinal (GI) wall metabolism (f(g)), liver metabolism (f(h)), and biliary excretion. The method used has been described in Pang, C. S., J. Pharmacol. Exp. Therapeutics, 333, pp. 788-798 (1984).

Row | Ki (Caspase-1) [nM] | Ki (Caspase-3) [nM] | Biliary Excretion [2] | f (g) Xf (h) ([2]; GI wall metabolism f(g) x liver metabolism f(h)) | Structure (SMILES) | IC50 [1] [nM]
1 | < 10 | > 1000 | B (Category “B” indicates 5-10%) | A (category “A” indicates <0.25) | CC(C)[C@H](NC(=O)c1nccc2ccccc12)C(=O)N[C@@H](C)C(=O)N[C@H](C=O)CC(=O)O [Example 29b] | 1000 to 2000
2 | > 1000 | 10 to 1000 | – | – | CC(=O)NC(CC(=O)O)C(=O)NC1CCN(C(CC(C)C)C(=O)NC(C=O)CC(=O)O)C1=O (stereo not shown) [Example 32d] | –
